Test results taken from patent publication US4894173A, “Divalent ion tolerant aromatic sulfonates” (The Standard Oil Company, priority 1988, dated 1990).
One block for each compound: values may come before it.

Assays:
Assay type in all cases: physicochemical
[1] = Surface tension (lowering of the air/water surface tension), Table 2; conditions: 10 mEq/L, deionized water, 22° C.
Method: The surface activity - lowering of the air/water surface tension - of the
surfactants was also measured. Surface tensions were measured at a
surfactant concentration of 10 milliequivalents/L in deionized water at
22° C. or a Fisher Autotensiomat (de Nouy ring) apparatus. At this
concentration, all the surfactants should be above their critical micell
^f Of a 10 mEq/L solution of surfactant at 22° C.

[2] = Calcium-ion tolerance (calcium precipitation) test; conditions: for Calcium Precipitation (ppm CA^2+): 10 mEq/L surfactant titrated with 5 M CaCl2 until transmittance (600 nm) 80% of initial; for Calcium Precipitation (ppm CA^2+), lower concentration / Calcium Precipitation (ppm CA^2+), higher concentration: 10 mEq/L; for Calcium Precipitation (ppm CA^2+), lower concentration: one component apparently precipitates at the lower calcium ion concentration; for Calcium Precipitation (ppm CA^2+), higher concentration: remainder precipitates at the higher calcium concentration
Method: Calcium-ion tolerance tests were conducted to quantify the relative solubility of the surfactants in the presence of divalent ions (see Table 2). All of the surfactants of this invention tolerated calcium ion concentrations from 28 to 10,000 times higher than the comparative examples.
^e A 10 mEq/L solution of Surfactant was titrated with 5 M CaCl2
solution until the transmittance of the solution (600 nm) was reduced to
80% of the initial value.
^g One component apparently precipitates out at the lower calcium ion
concentration and the reminder at the higher calcium concentration.

[3] = 60° C. solubility in deionized (distilled) water and in seawater; set-up: key to 60° C. Solubility (@ mEq/L), H2O / 60° C. Solubility (@ mEq/L), Seawater: S: completely soluble; P: partially soluble; I: insoluble; T: turbid solution
Method: As mentioned above, surfactants for EOR must be compatible with divalent ion containing brines such as seawater. Solubility tests were carried out in both deionized water and in seawater. The surfactants of this invention (Examples 1-5) were all soluble in seawater. […] A commercial sulfonate (SDBS, Comparative Example 3) was insoluble in seawater. All surfactants were soluble in distilled water.
^ d S = completely soluble P = partially soluble I = insoluble T =

[4] = Surface tension by Du Nouy ring method at varied calcium ion concentration, Table 3
Method: (§1) Surface tensions (in dynes/cm) were measured using the Du Nouy ring method. The reported surface tensions are for 10 meq/L surfactant solutions: which is above the CMC (critical micelle concentration). The CMC's (in meq/L) were determined by examination of surface tension vs. surfactant concentration curves.

[5] = CMC (critical micelle concentration) from surface tension vs. surfactant concentration curves; conditions: calcium ion concentration 0
Method: as §1

[6] = Divalent ion tolerance as stated in the description; conditions: divalent ion concentration tolerated / stable to
[7] = Thermal stability at 90° C.; surfactant activity by two-phase titration; conditions: for Surfactant Activity (%): 90° C.; for appearance: aged at 90° C.
Method: Surfactant solutions were prepared in distilled water, 1.2M sodium hydroxide, and 1.2M hydrochloric acid. These solutions were aged at 90° C. Samples were withdrawn at regular interval and surfactant activity was determined by two-phase titration.

[8] = Foam formation/stability, simple version of the Ross-Miles foam test; conditions: 10 meq/L
Method: Foam tests were conducted using a simple version of the Ross-Miles foam test. The initial (0 min) foam volume for SDBS was assigned a value of 100. All other foam volumes were related to this value.

Surface Tension [1]: 25.2 Dyne/cm | 60° C. Solubility (@ mEq/L), H2O ([3]; 15 mEq/L): S | 60° C. Solubility (@ mEq/L), Seawater ([3]; 26 mEq/L): S
Compound: CCCCCCC(CO)Cc1ccc(S(=O)(=O)O)cc1 (stereo not shown) [Example 4]
Calcium Precipitation (ppm CA^2+), lower concentration [2]: 350 ppm | Calcium Precipitation (ppm CA^2+), higher concentration [2]: 57000 ppm

Surface Tension [1]: 29.3 Dyne/cm | 60° C. Solubility (@ mEq/L), H2O ([3]; 15 mEq/L): S | 60° C. Solubility (@ mEq/L), Seawater ([3]; 27 mEq/L): S
Compound: CCCCCCCCC(CO)Cc1ccc(S(=O)(=O)O)cc1 (stereo not shown) [Example 5]
Calcium Precipitation (ppm CA^2+) [2]: 100K

Surface Tension [1]: 28.6 Dyne/cm | Surface Tension ([4]; 10 meq/L surfactant, calcium ion concentration 0): 29 dynes/cm | Surface Tension (observation in words) ([4]; calcium ion concentration 1000 PPM): surfactant precipitate | Surface Tension (observation in words) ([4]; calcium ion concentration 10,000 PPM): surfactant precipitate | CMC [5]: 1 meq/L | Surfactant Activity (%) ([7]; 1.2 M HCl, 0 hr): 100% | Surfactant Activity (%) ([7]; 1.2 M HCl, 305 hr): 92% | Surfactant Activity (%) ([7]; 1.2 M HCl, 500 hr): 59% | Surfactant Activity (%) ([7]; 1.2 M HCl, 720 hr): 41% | appearance ([7]; 1.2 M HCl): ppt | Surfactant Activity (%) ([7]; 1.2 M NaOH, 0 hr): 1% | appearance ([7]; 1.2 M NaOH): ppt | Surfactant Activity (%) ([7]; distilled water, 0 hr): 100% | Surfactant Activity (%) ([7]; distilled water, 330 hr): 93% | Surfactant Activity (%) ([7]; distilled water, 525 hr): 93% | Surfactant Activity (%) ([7]; distilled water, 740 hr): 93% | appearance ([7]; distilled water): clear | Foam Volume (relative to initial SDBS = 100) ([8]; 0 min): 100 | Foam Volume (relative to initial SDBS = 100) ([8]; +5 min): 94 | Foam Volume (relative to initial SDBS = 100) ([8]; +15 min): 83 | Foam Volume (relative to initial SDBS = 100) ([8]; +30 min): 77 | Foam Volume (relative to initial SDBS = 100) ([8]; +45 min): 71 | 60° C. Solubility (@ mEq/L), H2O ([3]; 27 mEq/L): S | solubility in seawater (in words) [3]: insoluble | 60° C. Solubility (@ mEq/L), Seawater ([3]; 27 mEq/L): I
Compound: sodium dodecylbenzenesulfonate [SDBS]
divalent ion tolerance [6]: 100 ppm | Calcium Precipitation (ppm CA^2+) [2]: 90 ppm

The next lines start with the compound.

Compound: CCCCCCCCCCCCc1ccc(O)c(S(=O)(=O)O)c1 [Comparative Example 1]
Surface Tension [1]: 23.4 Dyne/cm | Calcium Precipitation (ppm CA^2+) [2]: < 80 ppm | 60° C. Solubility (@ mEq/L), H2O ([3]; 24 mEq/L): S | solubility in seawater (in words) [3]: either insoluble or partially soluble | 60° C. Solubility (@ mEq/L), Seawater ([3]; 25 mEq/L): I

Compound: CCCCCCCCCc1ccc(O)c(S(=O)(=O)O)c1 [Comparative Example 2]
Surface Tension [1]: 24.9 Dyne/cm | Calcium Precipitation (ppm CA^2+) [2]: 160 ppm | 60° C. Solubility (@ mEq/L), H2O ([3]; 30 mEq/L): S,T | solubility in seawater (in words) [3]: either insoluble or partially soluble | 60° C. Solubility (@ mEq/L), Seawater ([3]; 28 mEq/L): P

Compound: CCCCCCC(CO)CCC(C)c1ccc(S(=O)(=O)O)cc1 (stereo not shown) [Example 1]
Surface Tension [1]: 25.1 Dyne/cm | Calcium Precipitation (ppm CA^2+) [2]: 2800 ppm | 60° C. Solubility (@ mEq/L), H2O ([3]; 18 mEq/L): S

Compound: CCCCCC(CO)CCC(C)c1ccc(S(=O)(=O)O)cc1 (stereo not shown) [Example 2]
Surface Tension [1]: 25.6 Dyne/cm | Calcium Precipitation (ppm CA^2+), lower concentration [2]: 355 ppm | Calcium Precipitation (ppm CA^2+), higher concentration [2]: 20000 ppm | 60° C. Solubility (@ mEq/L), H2O ([3]; 35 mEq/L): S | 60° C. Solubility (@ mEq/L), Seawater ([3]; 34 mEq/L): S

Compound: CCCCCCCCC(CO)CCC(C)c1ccc(S(=O)(=O)O)cc1 (stereo not shown) [Example 3]
Surface Tension [1]: 26.4 Dyne/cm | Calcium Precipitation (ppm CA^2+) [2]: 40K | 60° C. Solubility (@ mEq/L), H2O ([3]; 18 mEq/L): S | 60° C. Solubility (@ mEq/L), Seawater ([3]; 27 mEq/L): S
